Results as given in PubChem BioAssay (NCI).
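Cells were grown in 96-well plates and exposed to each compound for 48 hours at five concentrations; endpoints were interpolated linearly between bracketing concentrations, or set to the highest concentration if not reached. GI50 = concentration required for 50% inhibition of growth. The concentration for full growth arrest is given as TGI.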

Key:
Test in all cases: NCI-60 cell line screen, 48 h
[1] = test system: M14 melanoma
[2] = test system: COLO 205 colon
[3] = test system: SN12C renal
[4] = test system: MOLT-4 leukemia
[5] = test system: 786-0 renal
[6] = test system: SK-MEL-5 melanoma
[7] = test system: OVCAR-8 ovarian
[8] = test system: SF-539 CNS
[9] = test system: PC-3 prostate
[10] = test system: T-47D breast

In the case of Cc1c2cc[n+](C)cc2c(C)c2c1[nH]c1ccc(OC(C)(C)C)cc12, the TGI [1] is reported as > 100 µM, the TGI [2] is reported as > 100 µM and the TGI [3] is reported as > 100 µM. For the same compound, the TGI [4] was > 100 µM, the TGI [5] was > 100 µM and the TGI [6] was > 100 µM. For the same compound, the TGI [7] was > 100 µM and the TGI [8] was > 100 µM.

In the case of Clc1cc2ns[s+]c2cc1Cl, the TGI [1] is reported as > 100 µM, the TGI [2] is reported as > 100 µM and the TGI [3] is reported as > 100 µM. For the same compound, the TGI [4] was > 100 µM, the TGI [5] was > 100 µM and the TGI [6] was > 52 µM. The TGI [7] was > 100 µM and the TGI [8] was > 100 µM.

For Cc1cc(NCCCCCCCCNc2cc(C)nc3cc(N(C)C)ccc23)c2ccc(N(C)C)cc2n1, the TGI [1] was 21.4 µM, the TGI [2] was 5.5 µM and the TGI [3] was 21.5 µM. For the same compound, the TGI [4] was > 100 µM, the TGI [5] was 21 µM and the TGI [7] was 38.2 µM.

For CN1C(=O)CC(CC(=O)C2CCCCC2=O)CC1=O (stereo not given), the TGI [1] was > 100 µM, the TGI [2] was > 100 µM and the TGI [3] was > 100 µM. The TGI [4] was > 100 µM, the TGI [5] was > 100 µM and the TGI [7] was > 100 µM. The TGI [8] was > 100 µM.

Cc1cc(S(=O)(=O)Nc2nc3ccccc3s2)c(SCc2ccccc2)cc1Cl showed a GI50 [1] of 19.2 µM, a TGI [1] of 36.6 µM and a GI50 [2] of 30 µM. The TGI [2] was 68.4 µM, the GI50 [3] was 14.3 µM and the TGI [3] was 28.6 µM. The GI50 [9] was 13.5 µM, the TGI [9] was 28.8 µM and the GI50 [5] was 16.9 µM. For the same compound, the TGI [5] was 32.1 µM, the GI50 [6] was 12.5 µM and the TGI [6] was 25 µM. It also gave a GI50 [7] of 17 µM, a TGI [7] of 44.9 µM and a GI50 [8] of 16.5 µM. The TGI [8] was 32.7 µM.

Compound Nc1nc(N)c2c(n1)NC(c1ccc(Cl)cc1)C1CCc3ccccc3C1=N2 (stereo not given) has a GI50 [1] of 10.4 µM, a TGI [1] of 22.1 µM and a GI50 [2] of 2.78 µM. For the same compound, the TGI [2] was 9.05 µM, the GI50 [3] was 7.68 µM and the TGI [3] was 21.7 µM. The GI50 [9] was 2.86 µM, the TGI [9] was 14.5 µM and the GI50 [10] was 4.09 µM. It also gave a TGI [10] of 17.8 µM, a GI50 [5] of 11.8 µM and a TGI [5] of 24.1 µM. It also gave a GI50 [6] of 0.497 µM, a TGI [6] of 2.02 µM and a GI50 [7] of 10.8 µM. The TGI [7] was 43.1 µM, the GI50 [8] was 6.17 µM and the TGI [8] was 19.6 µM.

COc1ccc(NC(=O)CC2SC(=Nc3ccc(Cl)cc3C)NC2=O)c([N+](=O)[O-])c1 (stereo not given) was tested, and the TGI [1] was > 100 µM, the TGI [3] was > 100 µM and the TGI [4] was > 100 µM. For the same compound, the TGI [5] was > 100 µM, the TGI [6] was > 100 µM and the TGI [7] was > 100 µM. The TGI [8] was > 100 µM.

CCCCCCCCCCCCCC(=O)OCC1OC(=O)C(O)C1O (stereo not given) was tested, and the TGI [1] was > 100 µM, the TGI [2] was > 100 µM and the TGI [3] was > 100 µM. The TGI [4] was > 100 µM, the TGI [5] was > 100 µM and the TGI [6] was > 100 µM. The TGI [7] was > 100 µM and the TGI [8] was > 100 µM.

In the case of COc1ccc(CC2OC3(CCCCC3)CC3CCCCN32)cc1 (stereo not given), the TGI [1] is reported as > 100 µM, the TGI [2] is reported as > 100 µM and the TGI [3] is reported as > 100 µM. The TGI [4] was > 100 µM, the TGI [9] was > 100 µM and the TGI [10] was > 100 µM. The TGI [5] was > 100 µM, the TGI [6] was > 100 µM and the TGI [7] was > 100 µM.

With COC(=O)/C(=C1\OC(=O)C(c2ccc(Cl)cc2)=C1O)c1ccc(Cl)cc1 the TGI [1] was 97.5 µM, the TGI [2] was 45 µM and the TGI [3] was > 100 µM. The TGI [4] was 65.5 µM, the TGI [5] was > 100 µM and the TGI [7] was > 100 µM. For the same compound, the TGI [8] was 67.7 µM.

With O=C1/C(=C/c2ccc(C(=O)O)cc2)CNC/C1=C\c1ccc(C(=O)O)cc1 the TGI [1] was > 100 µM, the TGI [2] was > 100 µM and the TGI [3] was > 100 µM. The TGI [4] was > 100 µM, the TGI [5] was > 100 µM and the TGI [6] was > 100 µM. For the same compound, the TGI [7] was > 100 µM and the TGI [8] was > 100 µM.

In the case of O=S1c2ccccc2N=C(c2cccs2)CC1c1ccccc1O (stereo not given), the TGI [1] is reported as > 100 µM, the TGI [2] is reported as > 100 µM and the TGI [3] is reported as > 100 µM. The TGI [4] was > 100 µM, the TGI [5] was > 100 µM and the TGI [6] was > 100 µM. For the same compound, the TGI [7] was > 100 µM and the TGI [8] was > 100 µM.

C/C(COc1ccccc1)=N\NC(N)=S was tested, and the TGI [1] was > 100 µM, the TGI [2] was > 100 µM and the TGI [3] was > 100 µM. The TGI [4] was > 100 µM, the TGI [5] was > 100 µM and the TGI [6] was > 100 µM. The TGI [7] was > 100 µM and the TGI [8] was > 100 µM.

Oc1ccc(Cl)cc1N=Nc1c(O)ccc2ccccc12 was tested, and the TGI [1] was > 100 µM, the TGI [2] was > 100 µM and the TGI [3] was > 100 µM. The TGI [4] was > 100 µM, the TGI [9] was > 100 µM and the TGI [5] was > 100 µM. For the same compound, the TGI [6] was > 100 µM and the TGI [7] was > 100 µM.

For NC1=NN(c2ccccc2)C(=O)C1/C(=N\NC(=O)c1cc2ccccc2cc1O)C(=O)Nc1ccc(Cl)c(Cl)c1 (stereo not given), the TGI [1] was 72.5 µM, the TGI [2] was 36.6 µM and the TGI [3] was > 100 µM. For the same compound, the TGI [4] was 75.6 µM, the TGI [5] was > 100 µM and the TGI [6] was 79.4 µM. The TGI [7] was > 100 µM and the TGI [8] was > 100 µM.

Work on Fc1ccc(Nc2ccnc(N3CCN(c4ccnc5cc(Cl)ccc45)CC3)n2)cc1 yielded a GI50 [1] of 1.89 µM, a TGI [1] of 4.25 µM and a GI50 [3] of 2.57 µM. The TGI [3] was > 100 µM, the GI50 [4] was 2.76 µM and the TGI [4] was 8.37 µM. The GI50 [9] was 1.73 µM, the TGI [9] was 8.33 µM and the GI50 [5] was 2.28 µM. It also gave a TGI [5] of 6.26 µM, a GI50 [6] of 1.53 µM and a TGI [6] of 2.96 µM. For the same compound, the GI50 [7] was 2.16 µM, the TGI [7] was 6.12 µM and the GI50 [8] was 2.95 µM. The TGI [8] was 10.3 µM.
